≈ marks a conversion by molar mass, not a printed value. Like-named read-outs stand apart in the source and are kept apart here.
Columns and labels:
[1] = system: leukemia L1210 ("L1210") cells; assay: Cytotoxicity test, cellular proliferation of L1210 cells in suspension culture; assay type: cell-based; conditions: Mus musculus, concentration decreasing cellular proliferation by 50%, 48 hour values
Method: (§1) 2'-Deoxy-4'-thioribonucleosides were tested for antitumor activity against leukemia L1210 ("L1210") cells and human epidermoid carcinoma No. 2 ("H.Ep.-2") cells.
(§2) For L1210 cells the IC50 is the concentration required to decrease cellular proliferation by 50% as compared to untreated controls. The cells were grown in suspension cultures and the number of cells present was determined at 24 and 48 hours.
(§3) In the cytotoxicity tests, the lower the IC50 value, the greater the antitumor activity. […]

[2] = in vitro; assay type: cell-based; conditions: monkey, vero cells
Method: (§4) The CPE-inhibition assays were designed to test seven 0.5 log10 concentrations of each compound, beginning with 320 µg/mL, against HSV in triplicate 24-hour Vero cell monolayers in 96-well tissue culture plates. […] Cell controls, untreated virus-infected controls and drug cytotoxicity controls were included in each assay. […] The cell monolayers were examined microscopically for drug cytotoxicity and for CPE. which was graded on a scale of 0-4 (0-100% CPE). The MIC50 (minimum inhibitory concentration, 50%) is the concentration of a test compound required for 50% inhibition of virus-induced cytopathogenic effect calculated by using a regression analysis program for semilog curve fitting. MTC (minimum toxic concentration) is the minimum drug concentration (µg/ml) causing any cytotoxicity. TI is the therapeutic index, calculated by dividing the minimum cytotoxic drug concentration (MTC) by the minimum inhibitory concentration, 50% (MIC50). […]

[3] = system: either H.Ep.-2 or L1210 cells, or both; assay: Cytotoxicity tests, summary statements that do not fix the cell line; assay type: cell-based; conditions: text statement on Table 2, cell line not fixed
Method: as §1, §2
(§5) For H.Ep.-2 cells, the IC50 is the concentration required to reduce colony formation by 50% as compared to controls. One hundred cells in 10 mL of medium were placed in prescription bottles, and after 10 days incubation, the medium was decanted and the colonies were stained and counted.
as §3

[4] = system: human epidermoid carcinoma No. 2 ("H.Ep.-2") cells; assay: Cytotoxicity test, colony formation of H.Ep.-2 cells; assay type: cell-based; conditions: HEp-2, 240 h, concentration reducing colony formation by 50%, 10 days incubation
Method: as §1, §5, §3

[5] = system: HSV-2 (MS); assay: CPE-inhibition assay against HSV-2 in Vero cell monolayers; assay type: cell-based, herpes simplex virus, Type 2; conditions: for VR: Virus Rating, VR 1.0 or greater significant, 0.5-0.9 marginal, less than 0.5 inactive; for EC50: read-out: MIC50
Method: (§6) 2'-Deoxy-4'-thioribonucleosides were tested for antiviral activity against viruses that replicate in mammalian cells growing in cell culture. The Virus Rating (VR) is a standard weighted measurement of antiviral activity which takes into account the degree of inhibition of virus-induced cytopathogenic effects (CPE) and the degree of cytotoxicity produced by the test compound, determined by a modification of the method of Ehrlich et al, Ann. N.Y. Acad. Sci. 130, 5-16 (1965) .
(§7) The CPE-inhibition assays were designed to test seven 0.5 log10 concentrations of each compound, beginning with 320 µg/mL, against HSV in triplicate 24-hour Vero cell monolayers in 96-well tissue culture plates. To each of the replicate cell cultures were dispensed 0.1 mL of the test compound solution (or suspension) and 0.1 mL of HSV suspension (diluted in medium to yield 32 CCID50 units per 0.1 mL). Cell controls, untreated virus-infected controls and drug cytotoxicity controls were included in each assay. […] The cell monolayers were examined microscopically for drug cytotoxicity and for CPE. which was graded on a scale of 0-4 (0-100% CPE).
(§8) The VR was calculated as 0.1 of the sum of the numerical differences between the recorded CPE grade of each test well and that of the corresponding virus control in the culture plate. Numerical differences between the scores of test wells containing a drug concentration which is partially cytotoxic and their corresponding virus controls were halved.
(§9) In tests carried out by this method, a greater value of VR indicates greater antiviral activity.
(§10) The MIC50 (minimum inhibitory concentration, 50%) is the concentration of a test compound required for 50% inhibition of virus-induced cytopathogenic effect calculated by using a regression analysis program for semilog curve fitting. MTC (minimum toxic concentration) is the minimum drug concentration (µg/ml) causing any cytotoxicity. TI is the therapeutic index, calculated by dividing the minimum cytotoxic drug concentration (MTC) by the minimum inhibitory concentration, 50% (MIC50). […]

[6] = system: HSV-1 (E377); assay: CPE-inhibition assay against HSV-1 in Vero cell monolayers; assay type: cell-based, herpes simplex virus, Type 1; conditions: for EC50: read-out: MIC50; for VR: Virus Rating, VR 1.0 or greater significant, 0.5-0.9 marginal, less than 0.5 inactive; for TI: therapeutic index, MTC divided by MIC50, HSV-1 (E377)
Method: as §6, §7, §8, §9, §10

[7] = system: Vero cell monolayers; assay: in vitro; assay type: cell-based; conditions: monkey, vero cells
Method: as §4

[8] = Human alphaherpesvirus 1, 50% inhibition of virus-induced cytopathogenic effect, HSV-1 (E377), Vero cells, unit not given for MIC50 (MTC in µg/ml, TI = MTC/MIC50)

EC50 [6, 8]	Structure (SMILES)	IC50 [1]	MCC [2]	IC50 [3]	IC50 [4]	VR ([5]; HSV-2 (MS), Vero cells)	VR ([6]; HSV-1 (E377), Vero cells)	TI [6]	MIC [7]	antiviral activity against herpes simplex Type 1 ([6]; statement in words on the tests of Table 1)	EC50 ([5]; Human alphaherpesvirus 2, 50% inhibition of virus-induced cytopathogenic effect, HSV-2 (MS), Vero cells, unit not given for MIC50 (MTC in µg/ml, TI = MTC/MIC50))	EC50 ([5]; Human alphaherpesvirus 2, Vero)	TI ([5]; therapeutic index, MTC divided by MIC50, HSV-2 (MS))	EC50 ([6]; Human alphaherpesvirus 1, Vero)
0.8 µg/mL (≈ 3.1 µM)	Cc1cn([C@H]2C[C@H](O)[C@@H](CO)S2)c(=O)[nH]c1=O [1-(2'-Deoxy-4'-thio-β-D-ribofuranosyl)thymine]	0.025 µg/mL (≈ 0.0968 µM)	2.6 µg/mL	< 1 µg/mL	0.075 µg/mL (≈ 0.29 µM)	0.1	1.3	3.2 -	–	–	–	–	–	–
100 µg/mL (≈ 388 µM)	Cc1cn([C@@H]2C[C@H](O)[C@@H](CO)S2)c(=O)[nH]c1=O [1-(2-Deoxy-4-thio-α-D-ribofuranosyl)-thymine]	20 µg/mL (≈ 77.4 µM)	> 257 µg/mL	–	2.7 µg/mL (≈ 10.5 µM)	0.3	1.4	2.3 -	>257.2 >257.2 µg/ml	definite antiviral activity	–	–	–	–
–	Nc1ncnc2c1ncn2[C@@H]1O[C@H](CO)[C@@H](O)[C@@H]1O [Ara-A, 9-β-D-arabinofuranosyladenine, reference compound]	–	84.8 µg/mL	–	–	1.1	1.8	5.6	–	–	–	39.3 µg/mL (≈ 147 µM)	2.2	15.2 µg/mL (≈ 56.9 µM)

Structure (SMILES)	EC50 [6, 8]	IC50 [1]	MCC [2]	IC50 [3]	IC50 [4]	VR ([5]; HSV-2 (MS), Vero cells)	VR ([6]; HSV-1 (E377), Vero cells)	TI [6]	MIC [7]	antiviral activity against herpes simplex Type 1 ([6]; statement in words on the tests of Table 1)	EC50 ([5]; Human alphaherpesvirus 2, 50% inhibition of virus-induced cytopathogenic effect, HSV-2 (MS), Vero cells, unit not given for MIC50 (MTC in µg/ml, TI = MTC/MIC50))	EC50 ([5]; Human alphaherpesvirus 2, Vero)	TI ([5]; therapeutic index, MTC divided by MIC50, HSV-2 (MS))	EC50 ([6]; Human alphaherpesvirus 1, Vero)
Nc1nc2c(ncn2COCCO)c(=O)[nH]1 [Acyclovir, reference compound]	0.5 µg/mL (≈ 2.22 µM)	–	> 225 µg/mL	–	–	4.8	6.7	> 441	>225.2 >225.2 µg/ml	–	3.6 µg/mL (≈ 16 µM)	–	–	–
